According to patent publication US5658908A (priority 1992, dated 1997):
Entries after “also recorded” stand apart in the source; their conditions may differ.

What was measured:
[1] = Side effects on peripheral administration to rats and mice
delta receptor [2] = biological target: delta receptor (Mus musculus, UniProt P32300); experiment: Delta opioid receptor agonist activity; conditions: in words
mu receptor [3] = experiment: Mu opioid receptor agonist activity; conditions: in words
[4] = Analgesia (test not described); format: in vivo; conditions: in words
delta-opioid receptor = experiment: Tail flick test, injection into brain (icv); format: in vivo; conditions: mice
mouse vas deferens [5] = biological target: T1, mouse vas deferens (Mus musculus, UniProt P32300); experiment: cell-based; format: cell-based
T1 construct: Vasa deferentia were removed from mice; from tissue; host or cells: mouse vas deferens
T1 sequence (P32300 whole entry): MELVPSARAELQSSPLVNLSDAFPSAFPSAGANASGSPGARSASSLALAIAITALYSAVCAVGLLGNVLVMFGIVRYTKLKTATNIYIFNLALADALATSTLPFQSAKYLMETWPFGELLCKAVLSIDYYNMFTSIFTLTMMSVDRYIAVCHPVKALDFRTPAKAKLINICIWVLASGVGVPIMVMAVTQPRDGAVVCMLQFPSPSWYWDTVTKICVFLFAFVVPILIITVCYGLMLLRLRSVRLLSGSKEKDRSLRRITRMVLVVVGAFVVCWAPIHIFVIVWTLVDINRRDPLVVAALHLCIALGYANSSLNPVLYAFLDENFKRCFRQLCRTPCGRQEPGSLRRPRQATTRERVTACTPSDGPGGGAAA

mouse vas deferens [6] = biological target: T1, mouse vas deferens; experiment: cell-based
Mu Receptor [7] = biological target: T2, Mu Receptor (Rattus norvegicus, UniProt P33535); experiment: Mu receptor binding, rat brain membranes; design: species or system rat (Sprague-Dawley); conditions: 125I-[D-Ala2,N-MePhe4,Met(O)ol5]enkephalin 0.1 nM, 24° C., 60 min, mean of (n) experiments, read-out: Mu Receptor IC50
T2 construct: Rat (Sprague-Dawley) brain membranes were prepared; from tissue; host or cells: rat (Sprague-Dawley) brain membranes
T2 sequence (P33535 whole entry): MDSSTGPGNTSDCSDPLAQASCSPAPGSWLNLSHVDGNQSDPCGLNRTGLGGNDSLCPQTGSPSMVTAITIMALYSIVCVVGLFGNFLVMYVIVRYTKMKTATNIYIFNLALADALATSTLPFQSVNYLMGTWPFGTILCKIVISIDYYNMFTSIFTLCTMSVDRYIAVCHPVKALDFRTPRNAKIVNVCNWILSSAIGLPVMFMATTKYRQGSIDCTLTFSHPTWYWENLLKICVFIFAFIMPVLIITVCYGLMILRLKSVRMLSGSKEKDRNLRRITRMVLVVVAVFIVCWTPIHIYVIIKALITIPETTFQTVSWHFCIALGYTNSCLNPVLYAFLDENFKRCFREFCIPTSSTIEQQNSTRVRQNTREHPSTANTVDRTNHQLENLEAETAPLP

guinea pig ileum = experiment: Inhibition of electrically stimulated contraction of guinea pig ileum; format: cell-based; conditions: Cavia porcellus, mean of (n) experiments, read-out: Guinea Pig lleum ED50
[8] = tested on: mu and delta opioid receptors; experiment: Rodent tests of analgesia, muscle rigidity, respiratory depression and proconvulsant activity
Delta Receptor [9] = biological target: T3, Delta Receptor (Rattus norvegicus, UniProt P33533); experiment: Delta receptor binding, rat brain membranes; design: species or system rat (Sprague-Dawley); conditions: 125I-[D-Ala2,D-Leu5]enkephalin 0.24 nM with mu-agonist morphiceptin analog, 24° C., 60 min, mean of (n) experiments, read-out: Delta Receptor IC50
T3 construct: Rat (Sprague-Dawley) brain membranes were prepared; from tissue; host or cells: rat (Sprague-Dawley) brain membranes
T3 sequence (P33533 whole entry): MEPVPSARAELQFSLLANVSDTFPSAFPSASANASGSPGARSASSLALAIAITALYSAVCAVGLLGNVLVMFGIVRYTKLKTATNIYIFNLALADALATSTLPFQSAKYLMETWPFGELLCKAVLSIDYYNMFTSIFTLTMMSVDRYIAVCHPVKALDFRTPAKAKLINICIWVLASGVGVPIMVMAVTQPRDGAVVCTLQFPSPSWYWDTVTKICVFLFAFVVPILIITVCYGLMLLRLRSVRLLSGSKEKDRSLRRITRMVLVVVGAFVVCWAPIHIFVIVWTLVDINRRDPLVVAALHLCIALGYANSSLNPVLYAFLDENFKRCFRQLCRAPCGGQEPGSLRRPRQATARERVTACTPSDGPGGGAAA

Chain of delta receptor (P32300 whole entry): as the sequence (P32300 whole entry) above

## C=CCN1C[C@H](C)N([C@H](c2cccc(O)c2)c2cc(Br)c(C(=O)N(CC)CC)s2)C[C@H]1C (relative stereo) [Compound B, 5-((αR*)-α-((2S*,5R*)-4-allyl-2,5-dimethyl-1-piperazinyl)-3-hydroxybenzyl)-3-bromo-N,N-diethyl-2-thiophenecarboxamide]
[1]
  side effects when administered peripherally: does not produce evident side effects
Opioid receptor
  opioid receptor ligand selectivity: highly selective opioid receptor ligand species
Delta receptor [2]
  delta receptor agonist activity: predominantly delta receptor agonist; also recorded: delta-opioid agonist

## C=CCN1C[C@H](C)N([C@@H](c2ccccc2)c2cccc(O)c2)C[C@H]1C (relative stereo) [Compound I]
Mu receptor [3]
  mu receptor agonist activity: significant agonist activity
[4]
  analgesic activity: strong analgesics
Delta receptor [2]
  delta receptor agonist activity: delta-receptor opiate properties

## C=CCN1C[C@H](C)N([C@@H](c2ccsc2)c2cccc(O)c2)C[C@H]1C (relative stereo) [Compound K]
Mu receptor [3]
  mu receptor agonist activity: significant agonist activity
[4]
  analgesic activity: strong analgesics
Delta receptor [2]
  delta receptor agonist activity: delta-receptor opiate properties

## C=C(C)CN1C[C@H](C)N(C(c2ccc(S(=O)(=O)N(CC)CC)cc2)c2cccc(O)c2)C[C@H]1C (some centres unmarked) [Compound D]
delta-opioid receptor
  analgesic activity in the tail flick test: provide analgesic activity
  reversal of analgesia by injection of naloxone or delta-specific antagonists (ICI 174,864 or naltrindole): reversible
Mouse vas deferens [5]; in words
  agonist activity in the mouse vas deferens: potent agonist

## CCN(CC)C(=O)c1ccc([C@H](c2cccc(O)c2)N2C[C@@H](C)N(C)C[C@H]2C)cc1 [Example 13, (+)-N,N-diethyl-4-(3-hydroxy-(αR)-α-((2R,5R) -2,4,5-trimethyl-1-piperazinyl)benzyl)benzamide]
Mouse vas deferens [6]
  Kb: 0.1 µM
Mu Receptor [7]
  IC50: 2.4 µM
Guinea pig ileum
  IC50: > 10 µM

## C=CCN1C[C@H](C)N([C@@H](c2cccc(O)c2)c2cccc(C(=O)N(CC)CC)c2)C[C@H]1C [Example 85, (+)-3-((αR)-α-((2S,5R)-4-Allyl-2,5-dimethyl-1-piperazinyl)-3-hydroxybenzyl)-N,N-diethylbenzamide]
Mu receptor [3]; listed as Compound C
  mu receptor agonist activity: mixed mu/delta opioid agonist; also recorded: agonism at both mu and delta opioid receptors
[8]
  analgesic potency compared to morphine: analgesic potency comparable to mu-analgesic morphine
  muscle rigidity and respiratory depression compared to morphine: much reduced extent of muscle rigidity and respiratory depression
  proconvulsant activity: free of proconvulsant activity
Delta receptor [2]; listed as Compound C
  delta receptor agonist activity: mixed mu/delta opioid agonist; also recorded: agonism at both mu and delta opioid receptors
Mouse vas deferens [5]
  IC50: 0.0073 µM
Delta Receptor [9]
  IC50: 0.0019 µM
Guinea pig ileum
  IC50: 0.018 µM
